Results reported in ChEMBL document CHEMBL1201862, “PubChem BioAssay data set” (2004).
Calls of active or inactive are those of the source.

Experiments:
[1] = molecular target: T1, Tyrosyl-DNA phosphodiesterase 2 (Homo sapiens, UniProt O95551); assay: human TDP2 enzyme inhibitors, dose response, biochemical, epi absorbance, IC50 (AID 743297)
T1 sequence (O95551 whole entry): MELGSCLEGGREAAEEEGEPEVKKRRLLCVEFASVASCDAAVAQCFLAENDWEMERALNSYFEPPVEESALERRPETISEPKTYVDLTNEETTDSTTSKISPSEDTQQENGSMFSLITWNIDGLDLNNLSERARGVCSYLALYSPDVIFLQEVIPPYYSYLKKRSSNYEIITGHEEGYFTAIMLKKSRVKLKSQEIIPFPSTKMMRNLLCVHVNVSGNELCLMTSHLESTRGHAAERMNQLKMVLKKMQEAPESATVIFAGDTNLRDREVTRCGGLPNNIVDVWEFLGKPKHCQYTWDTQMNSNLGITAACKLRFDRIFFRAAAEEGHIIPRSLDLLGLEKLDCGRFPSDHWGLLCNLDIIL

[2] = molecular target: 1-phosphatidylinositol 4,5-bisphosphate phosphodiesterase gamma-1 (Homo sapiens, UniProt P19174); assay: Counterscreen for inhibitors of phospholipase C isozymes (PLC-B3): Fluorescence-based biochemical high throughput dose response assay to identify inhibitors of phospholipase C isozymes (PLC-gamma1).
Chain of 1-phosphatidylinositol 4,5-bisphosphate phosphodiesterase gamma-1 (P19174 whole entry): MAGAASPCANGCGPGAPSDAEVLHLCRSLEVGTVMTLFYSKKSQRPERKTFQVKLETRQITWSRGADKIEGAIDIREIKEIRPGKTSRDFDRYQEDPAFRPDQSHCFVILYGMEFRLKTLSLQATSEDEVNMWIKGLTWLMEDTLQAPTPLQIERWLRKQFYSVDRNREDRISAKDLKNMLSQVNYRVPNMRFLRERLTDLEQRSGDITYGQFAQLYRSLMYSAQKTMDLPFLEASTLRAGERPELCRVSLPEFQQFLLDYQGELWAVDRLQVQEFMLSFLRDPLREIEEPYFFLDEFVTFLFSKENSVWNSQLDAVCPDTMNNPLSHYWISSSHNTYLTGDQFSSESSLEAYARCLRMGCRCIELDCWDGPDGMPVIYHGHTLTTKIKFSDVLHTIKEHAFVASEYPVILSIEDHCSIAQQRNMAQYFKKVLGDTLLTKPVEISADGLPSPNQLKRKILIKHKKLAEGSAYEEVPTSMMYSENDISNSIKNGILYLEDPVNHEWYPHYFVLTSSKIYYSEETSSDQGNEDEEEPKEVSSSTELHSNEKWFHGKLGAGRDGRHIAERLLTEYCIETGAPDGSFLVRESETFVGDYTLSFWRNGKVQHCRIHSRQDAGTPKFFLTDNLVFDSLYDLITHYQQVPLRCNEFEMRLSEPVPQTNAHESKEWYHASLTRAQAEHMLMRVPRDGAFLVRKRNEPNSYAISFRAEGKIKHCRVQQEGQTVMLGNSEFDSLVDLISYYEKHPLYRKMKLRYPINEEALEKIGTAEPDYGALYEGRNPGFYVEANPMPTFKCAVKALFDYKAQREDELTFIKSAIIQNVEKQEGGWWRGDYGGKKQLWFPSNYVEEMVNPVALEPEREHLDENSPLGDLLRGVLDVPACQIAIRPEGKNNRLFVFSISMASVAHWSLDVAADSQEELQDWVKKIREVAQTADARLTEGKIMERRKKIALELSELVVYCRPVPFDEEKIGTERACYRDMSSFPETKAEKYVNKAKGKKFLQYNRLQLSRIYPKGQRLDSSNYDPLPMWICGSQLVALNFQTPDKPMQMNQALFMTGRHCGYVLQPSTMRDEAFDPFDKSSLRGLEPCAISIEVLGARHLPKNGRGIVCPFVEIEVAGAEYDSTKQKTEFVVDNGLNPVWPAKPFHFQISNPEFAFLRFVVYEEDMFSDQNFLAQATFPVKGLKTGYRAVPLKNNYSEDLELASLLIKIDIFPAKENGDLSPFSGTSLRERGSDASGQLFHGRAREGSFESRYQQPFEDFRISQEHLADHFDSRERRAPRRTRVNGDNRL

[3] = molecular target: Ras and Rab interactor 1/Tyrosine-protein kinase ABL1 (Homo sapiens, UniProt P00519+Q13671); assay type: functional;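 note: biochemical TR-FRET dose-response test measuring inhibition of binding between Rin1 and Abl proteins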
[4] = molecular target: RNA-editing ligase 1, mitochondrial (Trypanosoma brucei brucei, UniProt P86926); assay: TbREL1 ligase inhibitors, dose response, biochemical, fluorescence, Trypanosoma brucei (AID 1117295); assay type: functional
Chain of RNA-editing ligase 1, mitochondrial (P86926 whole entry): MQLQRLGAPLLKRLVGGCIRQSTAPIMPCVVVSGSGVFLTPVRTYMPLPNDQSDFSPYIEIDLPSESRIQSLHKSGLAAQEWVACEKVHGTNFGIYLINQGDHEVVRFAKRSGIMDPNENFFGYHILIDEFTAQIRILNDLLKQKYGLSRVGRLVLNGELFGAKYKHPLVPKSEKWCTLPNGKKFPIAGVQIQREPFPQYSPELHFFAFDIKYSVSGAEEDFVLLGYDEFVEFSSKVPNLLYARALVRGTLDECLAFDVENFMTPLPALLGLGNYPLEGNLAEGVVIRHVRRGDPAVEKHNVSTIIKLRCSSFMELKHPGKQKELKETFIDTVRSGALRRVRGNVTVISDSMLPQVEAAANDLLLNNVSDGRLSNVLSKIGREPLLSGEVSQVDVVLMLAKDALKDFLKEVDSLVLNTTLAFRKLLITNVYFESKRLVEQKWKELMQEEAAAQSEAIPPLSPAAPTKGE

[5] = molecular target: 1-phosphatidylinositol 4,5-bisphosphate phosphodiesterase beta-3 (Homo sapiens, UniProt Q01970); assay: Fluorescence-based biochemical high throughput dose response assay to identify inhibitors of phospholipase C isozymes (PLC-B3).
Chain of 1-phosphatidylinositol 4,5-bisphosphate phosphodiesterase beta-3 (Q01970 whole entry): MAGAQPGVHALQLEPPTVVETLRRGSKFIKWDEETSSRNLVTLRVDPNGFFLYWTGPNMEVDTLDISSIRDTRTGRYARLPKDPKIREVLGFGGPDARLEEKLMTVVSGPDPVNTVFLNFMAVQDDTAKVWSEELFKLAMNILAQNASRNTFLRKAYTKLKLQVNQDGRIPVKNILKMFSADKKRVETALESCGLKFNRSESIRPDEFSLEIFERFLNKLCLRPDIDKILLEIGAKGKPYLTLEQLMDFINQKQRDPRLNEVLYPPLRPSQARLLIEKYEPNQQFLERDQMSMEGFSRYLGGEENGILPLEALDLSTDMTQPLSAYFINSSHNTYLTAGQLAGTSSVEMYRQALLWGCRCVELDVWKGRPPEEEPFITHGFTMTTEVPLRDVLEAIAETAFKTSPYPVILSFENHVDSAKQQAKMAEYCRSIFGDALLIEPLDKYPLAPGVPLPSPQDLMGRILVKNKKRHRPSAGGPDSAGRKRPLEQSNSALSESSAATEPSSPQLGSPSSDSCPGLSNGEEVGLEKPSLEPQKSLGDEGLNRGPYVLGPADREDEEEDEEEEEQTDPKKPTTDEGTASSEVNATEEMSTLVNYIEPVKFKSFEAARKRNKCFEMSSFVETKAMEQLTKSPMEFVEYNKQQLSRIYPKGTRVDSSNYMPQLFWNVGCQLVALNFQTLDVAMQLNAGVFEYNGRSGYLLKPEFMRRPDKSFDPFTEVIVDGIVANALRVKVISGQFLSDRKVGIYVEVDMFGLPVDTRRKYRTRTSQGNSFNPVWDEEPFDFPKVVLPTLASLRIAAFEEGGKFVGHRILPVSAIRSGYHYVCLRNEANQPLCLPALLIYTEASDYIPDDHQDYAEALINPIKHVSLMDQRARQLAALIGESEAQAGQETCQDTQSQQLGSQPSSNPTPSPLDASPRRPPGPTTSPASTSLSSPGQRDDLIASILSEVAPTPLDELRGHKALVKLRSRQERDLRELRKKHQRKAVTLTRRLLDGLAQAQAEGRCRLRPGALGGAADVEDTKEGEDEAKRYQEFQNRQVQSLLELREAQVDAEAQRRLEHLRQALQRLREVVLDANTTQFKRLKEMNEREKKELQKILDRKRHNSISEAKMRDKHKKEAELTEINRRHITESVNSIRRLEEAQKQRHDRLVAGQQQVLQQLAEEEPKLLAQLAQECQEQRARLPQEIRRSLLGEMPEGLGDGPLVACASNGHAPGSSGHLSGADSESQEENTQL

[6] = molecular target: T2, Mitochondrial peptide methionine sulfoxide reductase (Bos taurus, UniProt P54149); assay: Absorbance-based biochemical high throughput dose response assay for activators of Methionine sulfoxide reductase A (MsrA).; assay type: functional
T2 sequence (P54149 whole entry): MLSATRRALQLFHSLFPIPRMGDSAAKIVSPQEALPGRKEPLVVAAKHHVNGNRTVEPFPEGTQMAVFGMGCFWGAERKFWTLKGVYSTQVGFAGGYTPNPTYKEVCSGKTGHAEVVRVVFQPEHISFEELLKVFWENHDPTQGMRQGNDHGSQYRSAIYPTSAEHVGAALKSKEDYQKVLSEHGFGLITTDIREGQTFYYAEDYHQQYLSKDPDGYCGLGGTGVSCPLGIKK

[7] = non-specific cell cytotoxicity, dose response, cytotoxicity control for PAX8 inhibitor project, plate reader, dry powder samples (AID 743021); assay type: functional, cell-based
[8] = molecular target: Paired box protein Pax-8 (Homo sapiens, UniProt Q06710); assay: inhibitors of PAX8-driven TPO luciferase reporter, dose response, RMG-I cells, cherry-pick (AID 687027); assay type: functional, cell-based;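 note: luciferase reporter driven by Pax8 target thyroperoxidase promoter measured by SteadyGlo luminescence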
Chain of Paired box protein Pax-8 (Q06710 whole entry): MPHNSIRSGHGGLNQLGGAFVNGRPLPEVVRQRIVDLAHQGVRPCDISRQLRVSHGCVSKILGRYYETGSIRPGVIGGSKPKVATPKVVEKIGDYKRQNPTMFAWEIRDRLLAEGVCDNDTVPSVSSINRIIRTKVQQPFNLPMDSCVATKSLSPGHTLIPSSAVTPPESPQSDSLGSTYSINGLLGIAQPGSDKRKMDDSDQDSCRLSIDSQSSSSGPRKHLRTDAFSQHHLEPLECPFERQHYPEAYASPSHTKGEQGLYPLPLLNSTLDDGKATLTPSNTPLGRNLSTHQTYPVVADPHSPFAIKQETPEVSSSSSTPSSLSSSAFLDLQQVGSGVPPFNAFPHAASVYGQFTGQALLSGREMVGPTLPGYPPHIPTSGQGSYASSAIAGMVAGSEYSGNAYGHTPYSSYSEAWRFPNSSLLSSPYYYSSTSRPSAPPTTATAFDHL

[9] = molecular target: T3, Histone-lysine N-methyltransferase NSD2 (Homo sapiens, UniProt O96028); assay type: biochemical
T3 sequence (O96028 whole entry): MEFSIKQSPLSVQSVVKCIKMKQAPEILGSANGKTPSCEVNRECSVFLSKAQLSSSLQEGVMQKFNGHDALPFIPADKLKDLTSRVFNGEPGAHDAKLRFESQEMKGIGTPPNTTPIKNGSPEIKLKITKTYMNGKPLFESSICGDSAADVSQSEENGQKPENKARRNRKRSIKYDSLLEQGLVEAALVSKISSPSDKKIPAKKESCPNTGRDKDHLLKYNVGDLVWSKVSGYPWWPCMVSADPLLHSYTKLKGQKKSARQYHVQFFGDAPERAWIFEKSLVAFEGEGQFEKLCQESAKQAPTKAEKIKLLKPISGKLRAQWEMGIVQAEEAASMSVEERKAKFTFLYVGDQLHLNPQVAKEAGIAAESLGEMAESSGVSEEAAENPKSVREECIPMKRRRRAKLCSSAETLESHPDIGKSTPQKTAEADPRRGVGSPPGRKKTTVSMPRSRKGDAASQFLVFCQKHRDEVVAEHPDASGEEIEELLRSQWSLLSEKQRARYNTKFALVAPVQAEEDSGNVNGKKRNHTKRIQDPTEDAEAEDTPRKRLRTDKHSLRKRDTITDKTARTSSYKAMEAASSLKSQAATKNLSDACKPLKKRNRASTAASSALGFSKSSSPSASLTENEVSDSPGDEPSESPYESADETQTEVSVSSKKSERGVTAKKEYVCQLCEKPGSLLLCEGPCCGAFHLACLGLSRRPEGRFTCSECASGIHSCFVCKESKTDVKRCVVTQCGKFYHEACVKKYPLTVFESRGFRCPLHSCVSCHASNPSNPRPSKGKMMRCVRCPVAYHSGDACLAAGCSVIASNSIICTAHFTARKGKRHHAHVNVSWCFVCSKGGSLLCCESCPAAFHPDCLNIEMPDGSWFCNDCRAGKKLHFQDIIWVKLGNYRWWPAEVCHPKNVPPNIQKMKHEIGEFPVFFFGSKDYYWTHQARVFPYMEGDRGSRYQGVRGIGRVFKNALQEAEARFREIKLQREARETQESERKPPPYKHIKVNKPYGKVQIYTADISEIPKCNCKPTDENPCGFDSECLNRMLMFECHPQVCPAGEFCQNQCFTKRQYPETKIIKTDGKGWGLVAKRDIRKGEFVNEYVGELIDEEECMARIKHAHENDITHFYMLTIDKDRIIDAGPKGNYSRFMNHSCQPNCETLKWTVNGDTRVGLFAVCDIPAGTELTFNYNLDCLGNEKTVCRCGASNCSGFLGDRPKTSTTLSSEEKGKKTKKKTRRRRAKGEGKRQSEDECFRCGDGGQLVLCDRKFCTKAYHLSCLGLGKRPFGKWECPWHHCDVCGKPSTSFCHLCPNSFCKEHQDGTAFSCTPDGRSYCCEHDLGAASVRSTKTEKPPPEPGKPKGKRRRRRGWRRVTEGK

[10] = molecular target: Photoreceptor-specific nuclear receptor (Homo sapiens, UniProt Q9Y5X4); assay type: functional, cell-based;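 note: CHO-S cells with Gal4-NCOR and VP16-NR2E3 two-hybrid luciferase reporter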
Chain of Photoreceptor-specific nuclear receptor (Q9Y5X4 whole entry, the tested form may be a part): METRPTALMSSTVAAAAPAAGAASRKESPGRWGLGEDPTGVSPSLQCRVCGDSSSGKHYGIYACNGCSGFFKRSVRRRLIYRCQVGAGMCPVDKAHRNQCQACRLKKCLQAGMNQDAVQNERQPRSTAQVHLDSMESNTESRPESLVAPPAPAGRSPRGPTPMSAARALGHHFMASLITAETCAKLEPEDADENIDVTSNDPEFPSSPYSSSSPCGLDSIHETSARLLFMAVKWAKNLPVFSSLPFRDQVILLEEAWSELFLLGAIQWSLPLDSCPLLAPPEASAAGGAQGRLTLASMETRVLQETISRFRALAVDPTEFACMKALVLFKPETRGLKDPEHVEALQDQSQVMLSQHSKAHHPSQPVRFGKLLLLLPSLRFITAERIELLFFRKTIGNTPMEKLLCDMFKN

[11] = ARNT/TACC3 interaction disruptors, potency, confirmation, biochemical, AlphaScreen, cherry-picked samples (AID 651703); assay type: functional, Homo sapiens;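 note: His-tagged ARNT PAS-B domain paired with GST-TACC3 E629A dimer coactivator fragment; potency of inhibitors that break up the complex and lower AlphaScreen signal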
[12] = molecular target: T2, Mitochondrial peptide methionine sulfoxide reductase; assay type: functional
[13] = molecular target: T4, DNA repair protein RAD52 homolog (Homo sapiens, UniProt P43351); assay type: functional, biochemical
T4 sequence (P43351 whole entry): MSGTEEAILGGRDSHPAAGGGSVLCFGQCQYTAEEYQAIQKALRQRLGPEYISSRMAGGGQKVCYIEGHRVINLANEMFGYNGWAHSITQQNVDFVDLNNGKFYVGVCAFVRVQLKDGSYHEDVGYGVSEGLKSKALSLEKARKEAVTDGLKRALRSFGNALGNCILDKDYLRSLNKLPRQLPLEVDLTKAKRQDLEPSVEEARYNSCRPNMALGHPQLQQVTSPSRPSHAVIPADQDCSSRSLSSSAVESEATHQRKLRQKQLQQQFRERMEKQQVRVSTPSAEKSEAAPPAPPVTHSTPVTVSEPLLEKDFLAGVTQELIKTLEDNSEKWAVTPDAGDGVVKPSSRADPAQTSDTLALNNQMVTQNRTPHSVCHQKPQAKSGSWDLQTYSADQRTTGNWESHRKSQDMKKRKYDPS

[14] = test system: BJ; assay: cytotoxicity toward BJ-TERT-LT-ST fibroblasts, dose response, cell-based, RAS-independent, luminescence (AID 1935); assay type: functional; conditions: Homo sapiens;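 note: BJ fibroblasts immortalized with TERT plus LT and ST oncogenes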
[15] = molecular target: T5, Heat shock factor protein 1 (Mus musculus, UniProt P38532); assay: HSF1 potentiators in luciferase reporter cells, confirmation, cell-based, NIH3T3, luminescence, dose retest (AID 435004); assay type: functional;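 note: stress induced by proteasome inhibitor MG132 added 30 min after compound; luciferase reporter driven by HSF1 response element in NIH3T3 cells; actives raise luminescence as potentiators of the MG132 stress response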
T5 sequence (P38532 whole entry): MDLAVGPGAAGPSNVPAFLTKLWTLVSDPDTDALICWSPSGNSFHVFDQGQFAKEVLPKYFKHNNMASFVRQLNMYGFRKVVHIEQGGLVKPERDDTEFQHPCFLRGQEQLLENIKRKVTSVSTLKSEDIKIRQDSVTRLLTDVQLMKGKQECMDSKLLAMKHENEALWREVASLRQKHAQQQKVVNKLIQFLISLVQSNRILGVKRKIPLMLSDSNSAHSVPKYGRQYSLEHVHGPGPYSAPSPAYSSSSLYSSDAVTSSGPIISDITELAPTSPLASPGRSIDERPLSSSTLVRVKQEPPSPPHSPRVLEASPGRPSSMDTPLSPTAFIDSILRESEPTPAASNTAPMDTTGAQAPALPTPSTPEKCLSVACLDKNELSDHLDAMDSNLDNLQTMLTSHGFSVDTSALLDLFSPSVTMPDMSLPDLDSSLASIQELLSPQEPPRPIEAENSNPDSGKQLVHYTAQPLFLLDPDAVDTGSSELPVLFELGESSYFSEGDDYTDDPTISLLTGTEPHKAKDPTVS

[16] = Luminescence Cell-Based Dose Response HTS to Identify Inhibitors of 5'UTR Stem-Loop Driven Prion Protein mRNA Translation in H4 Neuroglioblastoma Cells. [Related pubchem assays: 1827 (Project Summary), 1813 (Primary HTS)]; assay type: functional
[17] = cytotoxicity toward DRD oncogenic fibroblasts, dose response, cell-based, non-viral oncogenic, luminescence (AID 1934); assay type: functional; conditions: Homo sapiens
[18] = inhibitors of firefly luciferase expression or activity, dose response, H4 neuroglioma cells, luminescence (AID 1990); assay type: functional, cell-based
[19] = test system: BJ; assay: cells; assay type: functional, cell-based; conditions: Homo sapiens
[20] = inhibitors of SNCA 5'UTR-driven reporter translation, confirmation, H4 neuroglioma cells, luminescence (AID 1988); assay type: functional, cell-based
[21] = test system: BJ; assay: cytotoxicity toward BJ-TERT fibroblasts, dose response, cell-based, RAS-independent, luminescence (AID 1933); assay type: functional; conditions: Homo sapiens
[22] = molecular target: Beta Lactamase (Pseudomonas aeruginosa, UniProt Q932Y6); assay: beta-lactamase reporter inhibitor potency, dose response, artefact control for NOD2-RIPK2 interaction inhibitor project, BLA reporter cells, FRET fluorescence (AID 651552); assay type: functional, cell-based
Chain of Beta Lactamase (Q932Y6 whole entry, the tested form may be a part): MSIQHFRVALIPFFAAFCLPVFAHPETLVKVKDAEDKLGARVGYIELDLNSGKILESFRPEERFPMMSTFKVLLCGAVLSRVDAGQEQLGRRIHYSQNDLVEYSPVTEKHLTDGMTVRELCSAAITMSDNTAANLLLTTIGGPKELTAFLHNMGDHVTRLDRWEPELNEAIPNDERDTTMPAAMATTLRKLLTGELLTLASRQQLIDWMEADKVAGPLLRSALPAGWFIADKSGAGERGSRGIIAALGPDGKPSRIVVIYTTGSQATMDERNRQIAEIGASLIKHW

[23] = Fluorescence-based cell-based high throughput dose response assay for inhibitors of the interaction of nucleotide-binding oligomerization domain containing 2 (NOD2) and the receptor-interacting serine-threonine kinase 2 (RIPK2).; assay type: functional; conditions: Homo sapiens
[24] = test system: BJ; assay: cytotoxicity toward Ras-transformed BJeLR fibroblasts, dose response, cell-based, alamar blue fluorescence, cherrypicked samples (AID 2631); assay type: functional; conditions: Homo sapiens;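 note: confirmatory dose-response assay in RAS-dependent BJ fibroblasts engineered with TERT, LT and ST, with cytotoxicity read by fluorescence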
[25] = cytotoxicity in NIH3T3 fibroblasts, dose response, cytotoxicity control for HSP40 inhibitor project, cell-based, CellTiter-Glo luminescence, cherry-pick, set 2 (AID 624265); assay type: functional
[26] = molecular target: Heat shock protein HSP 90-alpha (Homo sapiens, UniProt P07900); assay type: functional, organism-based
[27] = inhibitors of intracellular T. cruzi replication, confirmation, NIH3T3 host cells, beta-gal luminescence (AID 2044); assay type: functional, cell-based;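 note: intracellular parasites grown in NIH/3T3 mouse fibroblasts as host cells; luminescent beta-galactosidase reporter signal from transgenic T. cruzi replicating inside host cells; inhibitors lower the luminescence signal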
[28] = cytotoxicity toward NIH3T3 fibroblasts, dose response, counter-screen, cell-based, ATP luminescence, mouse fibroblasts (AID 2010); assay type: functional;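 note: cells exposed to compound for about 90 hours before reading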

With `O=C1C(=O)c2cccnc2-c2ncccc21` the IC50 [1] was 12.5 µM (inactive), the IC50 [2] was 11.2 µM (inactive) and the IC50 [3] was 6.59 µM (active). For the same compound, the IC50 [4] was 3.51 µM (active), the IC50 [5] was > 123 µM (inactive) and the EC50 [6] was 3.64 µM (active). For the same compound, the AC50 [7] was 8.53 µM (active), the AC50 [8] was 3.32 µM (active) and the AC50 [9] was 0.981 µM (active). For the same compound, the IC50 [10] was 12.1 µM (inactive).
With `CCOc1ccc(Nc2nc(N)nc(CN(C)C3CCCCC3)n2)cc1` the AC50 [11] was 71.6 µM (active).
For `O=C(O)CC1SC(N/N=C/C=C/c2ccccc2)=NC1=O` (stereo unspecified), the IC50 [12] was 97.5 µM (inactive).
With `COc1ccc(/N=C2\S/C(=C\c3ccc(Cl)c([N+](=O)[O-])c3)C(=O)N2CCN(C)C)cc1` the AC50 [13] was 10.8 µM (active), the EC50 [14] was 3.03 µM (inconclusive) and the EC50 [15] was 7.54 µM (active). For the same compound, the EC50 [16] was 8.46 µM (active), the EC50 [17] was 2.8 µM (inconclusive) and the EC50 [18] was > 120 µM (not active). The EC50 [19] was 9.3 µM (inconclusive), the EC50 [20] was 8.97 µM (active) and the EC50 [21] was 3.18 µM (inconclusive). The IC50 [22] was 49.7 µM (inactive), the IC50 [23] was 1.5 µM (active) and the EC50 [24] was 1.16 µM (active).
In the case of `CCC(C)n1ncn(-c2ccc(N3CCN(c4ccc(OCC5COC(Cn6cncn6)(c6ccc(Cl)cc6Cl)O5)cc4)CC3)cc2)c1=O` (stereo unspecified) [ITRACONAZOLE], the AbsAC35_uM [25] is reported as 105.6 µM, the AC50 [26] is reported as < 0.195 µM (active) and the EC50 [16] is reported as 50 µM (active). For the same compound, the EC50 [27] was 0.1 µM (active), the EC50 [18] was > 120 µM (not active) and the EC50 [20] was > 120 µM (not active). For the same compound, the EC50 [28] was > 60 µM (not active).
